In patent publication US9962453B2, “Immunogenic compound” (ALTIMMUNE UK LIMITED, priority 2013, dated 2018):
Marks after values point to notes of the source that are not given here.

Assay: Particle size measurement (dynamic light scattering) and visual solubility in aqueous solutions; for particle size, HIST/NaCl: unit not given here; for particle size, HIST: unit not given here; for particle size, NaCl: unit not given here; for particle size, PBS: unit not given here; for particle size, Water: unit not given here
Conditions: for particle size, HIST: 2 mg net mass/ml in 28 mM L-Histidine buffer, pH 5.9 to 6.4; for particle size, HIST/NaCl: 2 mg net mass/ml in 0.9% sodium chloride in 28 mM L-histidine, pH 5.9 to 6.3; for particle size, NaCl: 2 mg net mass/ml in 0.9% sodium chloride, pH 3.3 to 4.2; for particle size, PBS: 2 mg net mass/ml in 1× PBS, pH 6.9 to 7.5; for particle size, Water: 2 mg net mass/ml in water, pH 3.1 to 4.1, 20 °C; for behaviour in the particle size assay: water, HIST, NaCl versus HIST/NaCl, PBS

Substance	particle size, HIST	particle size, HIST/NaCl	particle size, NaCl	particle size, PBS	particle size, Water	behaviour in the particle size assay
Ac-LRLLAAHLALHAALLRLL-NH2 [Peptide 10, Ac-LRLLAAHLALHAALLRLL-NH2]	INS.	INS.	INS.	INS.	INS.	
Ac-LRLLHAALALAAHLLRLL-NH2 [Peptide 8, Ac-LRLLHAALALAAHLLRLL-NH2]	INS.	INS.	INS.	INS.	INS.	
Ac-LRLLHALLALLAHLLRLL-NH2 [Peptide 6, Ac-LRLLHALLALLAHLLRLL-NH2]	INS.	INS.	INS.	INS.	INS.	
Ac-LRLLHAPLALPAHLLRLL-NH2 [Peptide 7, Ac-LRLLHAPLALPAHLLRLL-NH2]	0*	INS.	0*	INS.	0*	
Ac-LRLLPAHLALHAPLLRLL-NH2 [Peptide 9, Ac-LRLLPAHLALHAPLLRLL-NH2]	0*	INS.	6.02*	INS.	0*	
Ac-RRLKKAKLKLKAKKLRRL-NH2 [Peptide 19, Ac-RRLKKAKLKLKAKKLRRL-NH2]	0*	0*	0*	0*	0*	
Ac-RRLLAAHLALHAALLRRL-NH2 [Peptide 15, Ac-RRLLAAHLALHAALLRRL-NH2]	0*	2.66*	0*	360.7*	0*	
Ac-RRLLAAPLALPAALLRRL-NH2 [Peptide 5, Ac-RRLLAAPLALPAALLRRL-NH2]	0*	3.3*	1.6*	1.35*	0*	
Ac-RRLLHAALALAAHLLRRL-NH2 [Peptide 13, Ac-RRLLHAALALAAHLLRRL-NH2]	0*	2.7*	2.2*	2.3*	0*	
Ac-RRLLHAHLALHAHLLRRL-NH2 [Peptide 16, Ac-RRLLHAHLALHAHLLRRL-NH2]	0*	1.83*	0*	1.4*	0*	apparent solubility in water, 28 mM L-Histidine and 0.9% NaCl with the formation of larger particles or insoluble aggregates in 28 mM L-Histidine/NaCl or PBS
Ac-RRLLHAKLALKAHLLRRL-NH2 [Peptide 17, Ac-RRLLHAKLALKAHLLRRL-NH2]	0*	0*	0*	0*	0*	
Ac-RRLLHALLALLAHLLRRL-NH2 [Peptide 11, Ac-RRLLHALLALLAHLLRRL-NH2]	0*	INS.	0*	INS.	0*	
Ac-RRLLHAPLALPAHLLRRL-NH2 [Peptide 12, Ac-RRLLHAPLALPAHLLRRL-NH2]	0*	0*	0*	1.35*	0*	
Ac-RRLLKAKLALKAKLLRRL-NH2 [Peptide 18, Ac-RRLLKAKLALKAKLLRRL-NH2]	0*	0*	0*	0*	0*	
Ac-RRLLLAPLALPALLLRRL-NH2 [Peptide 4, Ac-RRLLLAPLALPALLLRRL-NH2]	0*	0*	0*	2.38*	0*	
Ac-RRLLPAALALAAPLLRRL-NH2 [Peptide 2, Ac-RRLLPAALALAAPLLRRL-NH2]	0*	0*	0*	4.52*	0*	
Ac-RRLLPAHLALHAPLLRRL-NH2 [Peptide 14, Ac-RRLLPAHLALHAPLLRRL-NH2]	0*	0*	0*	1.5*	0*	
Ac-RRLLPALLALLAPLLRRL-NH2 [Peptide 3, Ac-RRLLPALLALLAPLLRRL-NH2]	0*	0*	0*	3.37*	0*	
Ac-RRLLPAPLALPAPLLRRL-NH2 [Peptide 1, Ac-RRLLPAPLALPAPLLRRL-NH2]	0*	0.87*	0*	2.39*	0*	
H-K(Ac)RRLLHAHLALHAHLLRRLK(Ac)-NH2 [Peptide 16′, K(Ac)RRLLHAHLALHAHLLRRLK(Ac)-NH2]	0*	2.3*	0*	2.9*	0*	apparent solubility in water, 28 mM L-Histidine and 0.9% NaCl with the formation of larger particles or insoluble aggregates in 28 mM L-Histidine/NaCl or PBS
